Reference: PubChem BioAssay AID2060498 (Molecular Pharmacology Branch, DTP, NCI, 2025)

System: 171881-019-R-J1-PDC tumor spheroids, viability
Assay: Anticancer human tumor 171881-019-R-J1-PDC patient-derived invasive breast carcinoma cell line growth inhibition [GQUAD]
Details: spheroids with HUVEC and MSC; for IC50: curve of first compound; for viability, T/C: stronger effect = lower value
From the text: DNA G-quadruplex Stabilizer Agents in Combinations in Complex Spheroids
A high-throughput screen of multi-cell type tumor spheroids was designed to identify active combinations of DNA G-quadruplex stabilizer agents and targeted small molecules. Complex spheroids include a stromal component modeled by human endothelial cells (HUVEC) and fibroblasts modeled by human mesenchymal stem cells (MSCs). The concentration ranges selected for each drug and investigational agent were based upon clinically achievable concentrations if the clinical Cmax of the agent was known.
Compounds. The drugs and investigational agents: pidnarulex (CX-5461; NSC782164), APTO-253 (NSC789042), BRACO-19 (NSC847499), peposertib (NSC802822), ceralasertib (NSC780249), elimusertib (NSC800525), camonsertib (NSC841442), AZD-1390 (NSC803789), olaparib (NSC753686), talazoparib (NSC767125), ART-558 (NSC835418), sotorasib (NSC818433), MRTX-1133 (NSC836407), SN-38 (NSC673596), topotecan (NSC609699), etoposide (NSC141540), doxorubicin (NSC123127), gemcitabine (NSC613327), 5-fluorouracil (NSC19893), paclitaxel (NSC125973), vemurafenib (NSC761431), panobinostat (NSC761190), R-306465 (JNJ-16241199; NSC773264), adavosertib (NSC754352), TP-3654 (NSC805149), carboplatin (NSC241240), KSQ-4279 (NSC840948), and staurosporine (NSC755774) were obtained from the National Cancer Institute (NCI) Developmental Therapeutics Program Chemical Repository (34). The FDA-approved anticancer drug set is available from the NCI Developmental Therapeutics Program. […] The stock solutions were prepared in dimethyl sulfoxide (DMSO, Sigma-Aldrich, St. Louis, MO, cat. D2650) at 800-fold the tested concentration and stored at -70 degrees C prior to their use. All drugs and investigational agents were tested over a range starting from a high concentration at or near the clinical Cmax and decreasing in half-log increments. If the clinical Cmax for an agent had not been determined, the highest concentration tested was 10 microM.
2.3 Cell Culture. All cells were maintained in an incubator at 37 degrees C and 5% CO2 with 95% humidity. The PDC lines were cultured according to standard operating procedures established by the NCI PDMR. All PDCs were thawed and cultured in Matrigel-coated flasks prepared with a working solution of 1X Ham's F-12 nutrient mix, without supplementation (Invitrogen, cat. 11765054), 100 U/mL penicillin-streptomycin (Invitrogen, cat. 15140122), and 2.5% Matrigel (Corning Inc., cat. 354248) for the first three passages. The 857933-349-R-J2-PDC line was cultured in 6C/Colon 1B media, which includes advanced DMEM/F-12 (Thermo Fisher Scientific, cat. 12634028), 10 mM HEPES (Thermo Fisher Scientific, cat. 15630080), 1X GlutaMAX supplement (Thermo Fisher Scientific, cat. 35050061), 0.1 mg/mL primocin (InvivoGen, cat. ant-pm-2), 10% defined fetal bovine serum, heat inactivated (HyClone Laboratories Inc., cat. SH30070.03HI), 50% L-WRN conditioned media (ATCC, cat. CRL-3276), 1.25 mM N-Acetyl-L-cysteine (Sigma-Aldrich, cat. A9165), 10 mM nicotinamide (Sigma-Aldrich, cat. N0636), 1X B-27 supplement (Thermo Fisher Scientific, cat. 17504044), 1X N-2 supplement (Thermo Fisher Scientific, cat. 17502048), 10 microM Y-27632 dihydrochloride (Tocris Bioscience, cat. 1254), and 50 ng/mL human EGF recombinant protein (Thermo Fisher Scientific, cat. PHG0311). The 485176-168-R4-J1-PDC line was cultured in Panc media, which includes all 6C/Colon 1B media components plus 100 ng/mL human FGF-10 (Thermo Fisher Scientific, cat. 100-26), 500 nM SB-431542 (Selleckchem, cat. S1067), and gastrin (Tocris, cat. 3006).
[…]

[1] = second compound 0.0316 µM, first compound 0.000999 µM
[2] = second compound 0.0316 µM, first compound 0.00316 µM
[3] = second compound 0.0316 µM, first compound 0.00999 µM
[4] = second compound 0.0316 µM, first compound 0.0316 µM
[5] = second compound 0.0316 µM, first compound 0.0999 µM
[6] = second compound 0.0316 µM, first compound 0.316 µM
[7] = second compound 0.1 µM, first compound 0.000999 µM
[8] = second compound 0.1 µM, first compound 0.00316 µM
[9] = second compound 0.1 µM, first compound 0.00999 µM
[10] = second compound 0.1 µM, first compound 0.0316 µM
[11] = second compound 0.1 µM, first compound 0.0999 µM
[12] = second compound 0.1 µM, first compound 0.316 µM
[13] = second compound 0.316 µM, first compound 0.000999 µM
[14] = second compound 0.316 µM, first compound 0.00316 µM
[15] = second compound 0.316 µM, first compound 0.00999 µM
[16] = second compound 0.316 µM, first compound 0.0316 µM
[17] = second compound 0.316 µM, first compound 0.0999 µM
[18] = second compound 0.316 µM, first compound 0.316 µM
[19] = second compound 1 µM, first compound 0.000999 µM
[20] = second compound 1 µM, first compound 0.00316 µM
[21] = second compound 1 µM, first compound 0.00999 µM
[22] = second compound 1 µM, first compound 0.0316 µM
[23] = second compound 1 µM, first compound 0.0999 µM
[24] = second compound 1 µM, first compound 0.316 µM
[25] = second compound 3.16 µM, first compound 0.000999 µM
[26] = second compound 3.16 µM, first compound 0.00316 µM
[27] = second compound 3.16 µM, first compound 0.00999 µM
[28] = second compound 3.16 µM, first compound 0.0316 µM
[29] = second compound 3.16 µM, first compound 0.0999 µM
[30] = second compound 3.16 µM, first compound 0.316 µM
[31] = second compound 10 µM, first compound 0.000999 µM
[32] = second compound 10 µM, first compound 0.00316 µM
[33] = second compound 10 µM, first compound 0.00999 µM
[34] = second compound 10 µM, first compound 0.0316 µM
[35] = second compound 10 µM, first compound 0.0999 µM
[36] = second compound 10 µM, first compound 0.316 µM
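Further: spheroids exposed to compounds for 7 days.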
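Wherever viability, T/C is given: 100% = DMSO vehicle control viability.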

Question: Which results are given for `CC[C@@]1(O)C(=O)OCc2c1cc1n(c2=O)Cc2cc3c(CN(C)C)c(O)ccc3nc2-1` + Cc1cnc(CNC(=O)c2c(=O)c3ccc(N4CCCN(C)CC4)nc3n3c2sc2ccccc23)cn1?
Answer: IC50 (second compound 0.0316 µM): 83.8 nM; IC50 (second compound 0.1 µM): 141 nM; IC50 (second compound 0.316 µM): > 316 nM; IC50 (second compound 1 µM): > 316 nM; IC50 (second compound 3.16 µM): > 316 nM; IC50 (second compound 10 µM): > 316 nM; viability, T/C [1]: 96.2%; viability, T/C [2]: 93.7%; viability, T/C [3]: 89.8%; viability, T/C [4]: 72.3%; viability, T/C [5]: 45.2%; viability, T/C [6]: 40.8%; viability, T/C [7]: 89.5%; viability, T/C [8]: 78.6%; viability, T/C [9]: 76.7%; viability, T/C [10]: 64.1%; viability, T/C [11]: 50%; viability, T/C [12]: 45.8%; viability, T/C [13]: 74%; viability, T/C [14]: 73.1%; viability, T/C [15]: 68.9%; viability, T/C [16]: 60.8%; viability, T/C [17]: 61.3%; viability, T/C [18]: 50.9%; viability, T/C [19]: 71.6%; viability, T/C [20]: 63.2%; viability, T/C [21]: 65.7%; viability, T/C [22]: 60.7%; viability, T/C [23]: 56.4%; viability, T/C [24]: 50.7%; viability, T/C [25]: 63.1%; viability, T/C [26]: 59.9%; viability, T/C [27]: 62.7%; viability, T/C [28]: 57%; viability, T/C [29]: 58.4%; viability, T/C [30]: 50.7%; viability, T/C [31]: 58.5%; viability, T/C [32]: 54.4%; viability, T/C [33]: 54.8%; viability, T/C [34]: 59.7%; viability, T/C [35]: 60.5%; viability, T/C [36]: 48%

Question: Which results are given for `CCc1c2c(nc3ccc(O)cc13)-c1cc3c(c(=O)n1C2)COC(=O)[C@]3(O)CC` + Cc1cnc(CNC(=O)c2c(=O)c3ccc(N4CCCN(C)CC4)nc3n3c2sc2ccccc23)cn1?
Answer: IC50 (second compound 0.0316 µM): 2.09 nM; IC50 (second compound 0.1 µM): 3.31 nM; IC50 (second compound 0.316 µM): 5.81 nM; IC50 (second compound 1 µM): 8.53 nM; IC50 (second compound 3.16 µM): 7.26 nM; IC50 (second compound 10 µM): 5.9 nM; viability, T/C [1]: 62.6%; viability, T/C [2]: 39.1%; viability, T/C [3]: 36.5%; viability, T/C [4]: 30.9%; viability, T/C [5]: 26.2%; viability, T/C [6]: 19.9%; viability, T/C [7]: 57.7%; viability, T/C [8]: 49.3%; viability, T/C [9]: 43.5%; viability, T/C [10]: 35.3%; viability, T/C [11]: 26.4%; viability, T/C [12]: 20.2%; viability, T/C [13]: 61.6%; viability, T/C [14]: 55.5%; viability, T/C [15]: 46.1%; viability, T/C [16]: 35.5%; viability, T/C [17]: 27.7%; viability, T/C [18]: 18.8%; viability, T/C [19]: 60.3%; viability, T/C [20]: 53.2%; viability, T/C [21]: 51.6%; viability, T/C [22]: 34.3%; viability, T/C [23]: 24%; viability, T/C [24]: 15.8%; viability, T/C [25]: 60.8%; viability, T/C [26]: 50.1%; viability, T/C [27]: 52.9%; viability, T/C [28]: 35.4%; viability, T/C [29]: 26%; viability, T/C [30]: 13.8%; viability, T/C [31]: 52.3%; viability, T/C [32]: 55.1%; viability, T/C [33]: 47.4%; viability, T/C [34]: 37.3%; viability, T/C [35]: 24.8%; viability, T/C [36]: 12.6%
